Assay results reported in patent publication US11400094B2, “2H-pyrazolo[4,3-d]pyrimidine compounds as toll-like receptor 7 (TLR7) agonists and methods and uses therefor” (BRISTOL-MYERS SQUIBB COMPANY, priority 2018, dated 2022).

Molecular target: T1, human TLR7 (Homo sapiens, UniProt Q9NYK1)
T1 construct: host or cells: HEK-Blue TLR7 cells (engineered human embryonic kidney cells)
T1 sequence (Q9NYK1 27-1049): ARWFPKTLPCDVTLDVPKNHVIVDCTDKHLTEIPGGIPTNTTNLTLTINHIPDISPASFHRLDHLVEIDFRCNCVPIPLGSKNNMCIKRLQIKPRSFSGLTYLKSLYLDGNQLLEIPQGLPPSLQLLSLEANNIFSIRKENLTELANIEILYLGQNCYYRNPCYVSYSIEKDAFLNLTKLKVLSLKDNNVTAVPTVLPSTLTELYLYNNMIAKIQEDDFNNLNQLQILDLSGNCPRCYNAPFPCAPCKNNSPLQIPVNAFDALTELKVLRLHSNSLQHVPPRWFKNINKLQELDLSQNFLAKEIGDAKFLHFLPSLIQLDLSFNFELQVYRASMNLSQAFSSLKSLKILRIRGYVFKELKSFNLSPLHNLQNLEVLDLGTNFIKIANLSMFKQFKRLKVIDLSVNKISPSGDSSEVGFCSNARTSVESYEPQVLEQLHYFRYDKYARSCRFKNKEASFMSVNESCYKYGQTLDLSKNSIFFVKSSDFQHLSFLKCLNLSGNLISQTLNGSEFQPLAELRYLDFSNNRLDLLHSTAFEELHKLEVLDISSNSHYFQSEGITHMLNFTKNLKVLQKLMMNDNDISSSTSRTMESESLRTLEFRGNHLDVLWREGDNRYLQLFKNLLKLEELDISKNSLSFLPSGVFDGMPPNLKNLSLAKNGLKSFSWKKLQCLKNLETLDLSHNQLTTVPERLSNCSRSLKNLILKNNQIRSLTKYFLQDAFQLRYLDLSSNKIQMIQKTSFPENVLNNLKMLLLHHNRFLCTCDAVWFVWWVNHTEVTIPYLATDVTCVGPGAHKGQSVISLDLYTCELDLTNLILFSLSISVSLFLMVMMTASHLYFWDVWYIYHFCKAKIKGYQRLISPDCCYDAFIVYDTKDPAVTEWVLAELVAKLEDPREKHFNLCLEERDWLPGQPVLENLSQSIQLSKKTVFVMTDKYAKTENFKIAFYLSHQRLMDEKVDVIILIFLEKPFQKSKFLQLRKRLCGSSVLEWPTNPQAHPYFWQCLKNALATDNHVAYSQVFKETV
Assay: HEK-Blue TLR7 reporter assay (human TLR7 agonist activity, SEAP reporter)
Assay type: cell-based
Conditions: Table A, formula IIa compounds; HEK-Blue TLR7 cells, 18 h treatment, SEAP read-out
Method: This procedure describes a method for assaying human TLR7 (hTLR7) agonist activity of the compounds disclosed in this specification.
HEK-Blue™ TLR7 cells were added to each well of a 384-well tissue-culture plate (15,000 cells per well) and incubated 16-18 h at 37° C., 5% CO2. […] After 18 h treatment ten microliters of freshly-prepared Quanti-Blue™ reagent (Invivogen) was added to each well, incubated for 30 min (37° C., 5% CO2) and SEAP levels measured using an Envision plate reader (OD=620 nm).

Point of comparison: CCCCNc1nc(N)nc2cn(Cc3ccc(CN4CCCC4)cc3OC)nc12 [IIa-32], EC50 600 nM. Against it:
- CCCCNc1nc(N)nc2cn(Cc3ccc(CNC4CCC4)cc3OC)nc12 [IIa-01] — 1.8-fold lower, 340 nM
- CCCCNc1nc(N)nc2cn(Cc3ccc(CN4CCNCC4)cc3OC)nc12 [IIa-02] — within 1.5-fold, 510 nM
- CCCCNc1nc(N)nc2cn(Cc3ccc(CNCCO)cc3OC)nc12 [IIa-03] — 1.7-fold higher, 1000 nM
- CCCCNc1nc(N)nc2cn(Cc3ccc(CNCCCN)cc3OC)nc12 [IIa-04] — 2.7-fold higher, 1600 nM
- CCCCNc1nc(N)nc2cn(Cc3ccc(CNCc4ccncc4)cc3OC)nc12 [IIa-05] — within 1.5-fold, 450 nM
- CCCCNc1nc(N)nc2cn(Cc3ccc(CNCC4COC4)cc3OC)nc12 [IIa-07] — within 1.5-fold, 610 nM
- CCCCNc1nc(N)nc2cn(Cc3ccc(CNC4CCC(O)CC4)cc3OC)nc12 (stereo not shown) [IIa-08] — within 1.5-fold, 650 nM
- CCCCNc1nc(N)nc2cn(Cc3ccc(CNC4CC(O)C4)cc3OC)nc12 (stereo not shown) [IIa-09] — within 1.5-fold, 420 nM
- CCCCNc1nc(N)nc2cn(Cc3ccc(CNCc4ccc(N)cc4)cc3OC)nc12 [IIa-10] — 2.2-fold lower, 270 nM
- CCCCNc1nc(N)nc2cn(Cc3ccc(CNCCS(C)(=O)=O)cc3OC)nc12 [IIa-11] — within 1.5-fold, 540 nM
- CCCCNc1nc(N)nc2cn(Cc3ccc(CO)cc3OC)nc12 [IIa-14] — within 1.5-fold, 550 nM
- CCCCNc1nc(N)nc2cn(Cc3ccc(CNC4COC4)cc3OC)nc12 [IIa-15] — 2-fold lower, 300 nM
- CCCCNc1nc(N)nc2cn(Cc3ccc(CN4CCN(CCO)CC4)cc3OC)nc12 [IIa-17] — 3.3-fold lower, 180 nM
- CCCCNc1nc(N)nc2cn(Cc3ccc(CNC4CCOCC4)cc3OC)nc12 [IIa-19] — 1.9-fold lower, 320 nM
- CCCCNc1nc(N)nc2cn(Cc3ccc(CNCC(C)(C)O)cc3OC)nc12 [IIa-20] — 2.1-fold lower, 280 nM
- CCCCNc1nc(N)nc2cn(Cc3ccc(Cn4ccnc4)cc3OC)nc12 [IIa-21] — 3.2-fold lower, 190 nM
- CCCCNc1nc(N)nc2cn(Cc3ccc(CNCCOC)cc3OC)nc12 [IIa-22] — 3-fold lower, 200 nM
- CCCCNc1nc(N)nc2cn(Cc3ccc(CN4CC(CCO)C4)cc3OC)nc12 [IIa-23] — 2-fold lower, 303 nM
- CCCCNc1nc(N)nc2cn(Cc3ccc(CNCC4CC(O)C4)cc3OC)nc12 (stereo not shown) [IIa-24] — 4.6-fold lower, 130 nM
- CCCCNc1nc(N)nc2cn(Cc3ccc(CNc4ccc(CCO)cc4)cc3OC)nc12 [IIa-25] — within 1.5-fold, 880 nM
- CCCCNc1nc(N)nc2cn(Cc3ccc(CN(C)CCCO)cc3OC)nc12 [IIa-26] — 3.1-fold lower, 194 nM
- CCCCNc1nc(N)nc2cn(Cc3ccc(CN4CC5CC4CN5)cc3OC)nc12 (stereo not shown) [IIa-27] — within 1.5-fold, 710 nM
- CCCCNc1nc(N)nc2cn(Cc3ccc(CNC4(CO)CCCC4)cc3OC)nc12 [IIa-28] — within 1.5-fold, 430 nM
- CCCCNc1nc(N)nc2cn(Cc3ccc(CN4CCCNCC4)cc3OC)nc12 [IIa-29] — within 1.5-fold, 760 nM
- CCCCNc1nc(N)nc2cn(Cc3ccc(CN4CCOCC4)cc3OC)nc12 [IIa-30] — within 1.5-fold, 580 nM
- CCCCNc1nc(N)nc2cn(Cc3ccc(CN4CCCCC4)cc3OC)nc12 [IIa-31] — within 1.5-fold, 410 nM
- CCCCNCc1ccc(Cn2cc3nc(N)nc(NCCCC)c3n2)c(OC)c1 [IIa-33] — within 1.5-fold, 810 nM
- CCCCNc1nc(N)nc2cn(Cc3ccc(CNC(C)(C)C)cc3OC)nc12 [IIa-34] — within 1.5-fold, 550 nM
- CCC[C@@H](CCO)Nc1nc(N)nc2cn(Cc3ccc(CO)cc3OC)nc12 [IIa-35] — 3.5-fold higher, 2100 nM
- CCCCNc1nc(N)nc2cn(Cc3ccc(CN4CCN(C)CC4)cc3OC)nc12 [IIa-36] — within 1.5-fold, 520 nM

Same assay, conditions: Table B, formula IIb compounds; HEK-Blue TLR7 cells, 18 h treatment, SEAP read-out

Point of comparison: CCCCNc1nc(N)nc2cn(Cc3ccc(Oc4ccc(CO)cc4)nc3)nc12 [IIb-01], EC50 820 nM. Against it:
- CCCCNc1nc(N)nc2cn(Cc3ccc(Oc4ccc(CNCCO)cc4)cc3OC)nc12 [IIb-02] — 2-fold higher, 1600 nM
- CCCCNc1nc(N)nc2cn(Cc3ccc(Oc4ccc(CNCCO)cc4)nc3)nc12 [IIb-04] — 2.6-fold higher, 2100 nM
